“And” between values parts separate entries of the source, which are not always exact repeats. Identical values can stand only once.
Tests used:
[1] = system: ovariectomized (Ovx) rats; assay: Bone anabolism in the ovariectomized rat; assay type: in vivo; design: Urine Calcium/Creatinine (6th Week): unit not given here; conditions: for Whole Femur BMD: weeks 3-6 post-ovariectomy
Source text: Three month old rats are ovariectomized (Ovx) and administered either 1,25-dihydroxy vitamin D3 (vit. D in Table) or one of the compounds of the present invention once a day by mouth starting at 3 weeks post-ovariectomy and continuing until final sacrifice at 6 weeks postovariectomy. Control groups, both sham (rats that were not ovariectomized) and Ovx, received vehicle only. Blood and urine samples were collected twice, at 4 weeks post-ovariectomy and again at the 6 week mark and the amount of serum and urine calcium was determined. The final femoral calcium was determined upon sacrifice 6 weeks post-ovariectomy.
The bone mineral density of the right femur was determined by using a High Resolution Software Package on a QDR-1000W Bone Densitometer™ (Hologic, Walthan, Mass.). The animals were scanned by placing them on a scanning block in a supine position such that the right leg was perpendicular to the main body and the tibia was perpendicular to the femur. The increase in the bone mineral density and the amount of calcium in the urine and the serum for some of the compounds of this invention in this assay are given in the table below: […]

[2] = system: MCF-7 cells; assay: Cell proliferation assay in MCF-7 breast cancer cells; assay type: cell-based; conditions: Homo sapiens, MCF7, 168 h; MCF-7, 7 days of culture with analog, Coulter count; read-out: IC50, concentration causing 50% reduction in MCF-7 cell growth in culture
Method: MCF-7 cells are human mammary carcinoma cells that are positive for estrogen receptors. The potential activity of vitamin D3 analogs against breast cancer was assessed from inhibition of proliferation of MCF-7 cells in culture.
MCF-7 cells were plated at 9000 cells/well in 24-well plates and incubated at 37° C. in 5% CO2/95% air in Dulbecco's Modified Eagle Medium containing 10% fetal bovine serum, 700 nM insulin, 2 mM glutarnine, 0.1 mM MEM non-essential amino acids and 1 mM sodium pyruvate. Stock solutions of vitamin D3 analogs were prepared at a concentration of 10 mM in absolute ethanol and stored at −20° C. under argon. Four days after plating, the number of MCF-7 were counted by removing the medium in 8 wells, rinsing the cells with 0.5 ml PBS without Ca/Mg and then incubating the cells with 0.3 ml of trypsin-EDTA. After 15 min., the trypsinization was stopped by adding 0.3 ml of medium. 0.2 ml aliquot was transferred from each well into dilu-vials containing 10 ml isoton and the number of cells were counted on Coulter Counter™ (Coulter, Miami, Fla.).
MCF-7 cells in the remaining wells were refed with either control medium or medium containing varying concentrations of the vitamin D3 analog. After a further 7 days of culture, the number of MCF-7 cells in each well was assessed by removing the medium, rinsing the cells with 0.5 ml PBS without Ca/Mg and then incubating the cells with 0.5 ml of trypsin-EDTA for 15 min. The trypsinization was stopped by adding 0.5 ml of medium and 0.1 ml aliquot from each well was transferred into dilu-vials containing 10 ml isoton and the number of cells were counted on Coulter Counter™.

[3] = system: ZR-75 cells; assay: Cell proliferation assay in ZR-75 breast cancer cells (MTT); assay type: cell-based; conditions: Homo sapiens, ZR75, 240 h, ZR-75, 10 days of culture with analog, read-out: IC50, concentration corresponding to half-maximal reduction in 570 nm absorbance
Method: ZR-75 cells are human mammary carcinoma cells that are positive for estrogen receptors. The potential activity of vitamin D3 analogs against breast cancer was assessed from inhibition of proliferation of ZR-75 cells in culture.
ZR-75 cells were plated at 12,500 cells/well in 24-well plates and incubated at 37° C. in 5% CO2/95% air in RPMI medium containing 10% fetal bovine serum and 2 mM L-glutamine. Stock solutions of vitamin D3 analogs were prepared at a concentration of 10 mM in absolute ethanol and stored at −20° C. under argon. One day after plating, ZR-75 cells were refed with either control medium or medium containing varying concentrations of the vitamin D3 analog.

[4] = system: rats with secondary hyperparathyroidism due to renal failure; assay: Secondary hyperparathyroidism in the rat renal insufficiency model (7/8 nephrectomy); assay type: in vivo; conditions: 7/8 nephrectomized rats, 0.1 μg/kg/day oral, seven days; for PTH T=1-T=0: change in serum PTH; for Final Ca Levels: serum calcium
Method: Female sprague Dawley rats were anesthetized, their right kidney removed and 2-3 branches of the left renal artery were ligated to achieve 7/8 nephrectomy. They were placed on a high phosphorous diet (0.06% Ca and 0.08 phosphorous). Approximately 3-6 weeks after surgery, rats were bled to screen serum PTH levels and rats with PTH levels between 100-500 pg/ml were selected for the study.
There was a pre-bleed (T=0) and each group was dosed daily for seven days by oral […] with either the compound of Formula (I) (0.1 μg/kg/day), vehicle control or 1,25-(OH)2 vitamin D3 positive control. Compounds were predissolved in ethanol and diluted with vehicle (Miglyol 812) followed by evaporation of the ethanol.
After the last day of dosing, the animals were bled again (T=1) and sacrificed. Serum PTH assays were done with Nichols Institute Diagnostic Kit #40-2240. Serum calcium assays were done with Sigma Diagnostic Kit #587 with o-cresophthalein. Serum creatinine assays were done with Sigma Diagnostic Kit #1600-320 with ammonium molybdate.

[5] = system: women with postmenopausal osteoporosis; conditions: cited from earlier work

With C=C1/C(=C\C=C2/CCC[C@]3(C)[C@@H]([C@H](C)CCCC(C)(C)O)CC[C@@H]23)C[C@@H](O)C[C@@H]1O [1,25-di(OH)-cholecalciferol, 1,25-dihydroxy-cholecalciferol, reference compound] the “Serum Calcium (6th Week)” value ([1]; 0.200 μg/kg/day by mouth, listed as Vit D) was 9.49 mg/dL and 10.65 mg/dL, the IC50 [2] was 149 nM and the IC50 [3] was 13 nM. The “PTH T=1-T=0” value [4] was -18 pg/mL, the Final Ca Levels [4] was 9.75 mg/dL and the “lower rate of new vertebral fractures compared with elemental calcium 1000 mg/day” value ([5]; mild to moderate postmenopausal osteoporosis, 0.25 microgram twice daily, after 3 years) was 3 fold. For the same molecule, the tolerability ([5]; overall) was “well tolerated” and the steroid-induced bone loss ([5]; patients starting prednisone or prednisolone, 0.5 to 1.0 micrograms/day plus calcium 1000 mg/day, with or without calcitonin) was “prevented steroid-induced bone loss”.
For C=C1/C(=C\C=C2/CCC[C@]3(C)[C@@H](C4(CC#CC(O)(C(F)(F)F)C(F)(F)F)CC4)CC[C@@H]23)C[C@@H](O)C[C@@H]1O [Cpd #3, 1,25-dihydroxy-23-yne-26,27-hexafluoro-20,21,28-cyclopropyl-cholecalciferol], the “Serum Calcium (6th Week)” value ([1]; 0.010 μg/kg/day by mouth) was 10.25 mg/dL, the “Urine Calcium/Creatinine (6th Week)” value ([1]; 0.010 μg/kg/day by mouth) was 0.83 and the Whole Femur BMD ([1]; 0.010 μg/kg/day by mouth) was 0.24 g/cm². The IC50 [2] was 0.03 nM, the IC50 [3] was 0.01 nM and the “PTH T=1-T=0” value [4] was -70 pg/mL. For the same molecule, the Final Ca Levels [4] was 10.7 mg/dL.
In the case of C[C@]12CCC/C(=C\C=C3C[C@@H](O)C[C@H](O)C3)[C@@H]1CC[C@@H]2C1(CC#CC(O)(C(F)(F)F)C(F)(F)F)CC1 [Cpd #4, 1,25-dihydroxy-23-yne-26,27-hexafluoro-20,21,28-cyclopropyl-19-norcholecalciferol], the “Serum Calcium (6th Week)” value ([1]; 0.005 μg/kg/day by mouth) is reported as 8.94 mg/dL, the “Urine Calcium/Creatinine (6th Week)” value ([1]; 0.005 μg/kg/day by mouth) is reported as 0.60 and the Whole Femur BMD ([1]; 0.005 μg/kg/day by mouth) is reported as 0.241 g/cm². The IC50 [2] was 0.05 nM, the IC50 [3] was 0.15 nM and the “PTH T=1-T=0” value [4] was -137 pg/mL. For the same molecule, the Final Ca Levels [4] was 10.1 mg/dL.
C=C1/C(=C\C=C2/CCC[C@]3(C)[C@@H](C4(CC#CC(C)(C)O)CC4)CC[C@@H]23)C[C@@H](O)C[C@@H]1O [compound 1, 1,25-dihydroxy-23-yne-20,21,28-cyclopropyl-cholecalciferol] gave an IC50 [2] of 0.5 nM.
CC(C)(O)C#CCC1([C@H]2CC[C@H]3/C(=C/C=C4C[C@@H](O)C[C@H](O)C4)CCC[C@]23C)CC1 [compound 2, 1,25-dihydroxy-23-yne-20,21,28-cyclopropyl-19-nor-cholecalciferol] gave an IC50 [2] of 0.3 nM and an IC50 [3] of 0.9 nM.
In the case of C=C1/C(=C\C=C2/CCC[C@]3(C)[C@@H](C4(C/C=C\C(O)(C(F)(F)F)C(F)(F)F)CC4)CC[C@@H]23)C[C@@H](O)C[C@@H]1O [compound 5, 1,25-dihydroxy-23-(Z)-ene-26,27-hexafluoro-20,21,28-cyclopropyl-cholecalciferol], the IC50 [2] is reported as 0.03 nM and the IC50 [3] is reported as 0.1 nM.
For C[C@]12CCC/C(=C\C=C3C[C@@H](O)C[C@H](O)C3)[C@@H]1CC[C@@H]2C1(C/C=C\C(O)(C(F)(F)F)C(F)(F)F)CC1 [compound 6, 1,25-dihydroxy-23-(Z)-ene-26,27-hexafluoro-20,21,28-cyclopropyl-19-norcholecalciferol], the IC50 [2] was 0.03 nM and the IC50 [3] was 0.1 nM.
